Literature values in the CATMoS acute toxicity set (Mansouri et al. 2021).
“And” between values parts separate entries of the source, which are not always exact repeats. Equal values may be shown once.

Experiment: rat acute oral toxicity
Settings: in vivo
Text: […]The data set underlying the modeling effort for this project was initially compiled by NICEATM and U.S. EPA’s CCTE. Briefly, LD50 data were collected from rat acute oral systemic toxicity tests, including limit tests, ranges/confidence intervals, and discrete LD50 values. The full data set included 21,200 LD50 entries for 15,688 substances. […] Data were reviewed to ensure that LD50 values with obvious errors in the extracted data such as unit conversion errors (e.g., comma and decimal separator misplacements) were either fixed or removed. After this review, 16,209 LD50 values remained. Many of the chemicals represented had multiple LD50 entries, requiring that a single representative value per Chemical Abstracts Service Registry Number (CASRN) identifier be defined to facilitate modeling efforts. Based on ATWG feedback and to define the representative LD50 as a protective value while accounting for the distribution across multiple LD50s, the median of the lowest quartile was computed using only discrete LD50 values (omitting limit test data and range and confidence interval data). A detailed summary of the data compilation is available online on the NICEATM webpage dedicated to the collaborative modeling project (NTP 2020).
[…][…] For categorical designations, limit test and range/confidence interval LD50 data were integrated wherever possible. As such, the number of chemicals with end point values/calls varies across the modeling end points (Table 3) based on whether chemicals had representative LD50 values and/or other data. If a chemical had both, the representative value was used to determine categorical calls rather than limit test data. Some data were useable only for certain end points and categories depending on the thresholds. For example, ranges that spanned multiple hazard categories were considered only for the binary (very toxic/nontoxic) end points and omitted from rendering a determination for hazard category assignment.
[…]The final data set comprising 11,992 chemicals was split into training and evaluation sets […], respectively. This process was performed semirandomly by ordering chemicals based on the five end points (categorical and continuous LD50 values) and partitioning every fourth record into the evaluation set accordingly. This approach was taken to ensure an equivalent distribution of the LD50 values and the different hazard categories between the training and the evaluation sets without supervised sampling of the chemicals based on structures (Figure 1A). The sources of the chemical structures were also kept equivalent between the two sets, with chemical structures obtained from DSSTox, being the highest quality, representing over 75% of each set (Figure 1B).

Row | SMILES | LD50
1 | CCCCC(CC)COC(CBr)c1ccccc1 (stereo unspecified) | 250 mg/kg
2 | Nc1ncnc2c1ncn2[C@@H]1O[C@H](COP(=O)(O)O)[C@@H](O)[C@H]1O | 11200 mg/kg
3 | CC(C)=CC1C(C(=O)OC(C#N)c2cccc(Oc3ccccc3)c2)C1(C)C (stereo unspecified) | 318 mg/kg
4 | NS(=O)(=O)CCl | 6050 mg/kg
5 | COc1ccc(Cl)cc1N/C(=N/C1CCCCC1)c1ccccc1 | 625 mg/kg
6 | O=[N+]([O-])c1cc2c(ccc3ccccc32)o1 | 439 mg/kg
7 | CCCCCCCC(=O)NO | 10700 mg/kg
8 | COP(=O)(SC)c1ccccc1 (stereo unspecified) | 55.3 mg/kg
9 | CC(C)=NNC(N)=S | 48.5 mg/kg
10 | Cc1ccccc1NC(=S)NN | 200 mg/kg
11 | CCNc1nc(NC(C)C)nc(OC)n1 | 1460 mg/kg
12 | CCOC(=O)c1ccccc1S(=O)(=O)NC(=O)Nc1nc(Cl)cc(OC)n1 | 4100 mg/kg
13 | C=CCOCCO | 3050 mg/kg
14 | CC(C)c1cccc(C(C)C)c1O | 500 mg/kg
15 | O=c1c2cccnc2oc2c(Cl)cc(-c3nn[nH]n3)cc12 | 16000 mg/kg
16 | O=C(O)CCc1nc(-c2ccccc2)c(-c2ccccc2)o1 | 4470 mg/kg
17 | COP(=S)(OC)SSP(=S)(OC)OC | 10000 mg/kg
18 | COP(=O)(OC)SC(CC(=O)OC(C)C)C(=O)OC(C)C (stereo unspecified) | 120 mg/kg
19 | CCOC(=O)C1(CCCCCCOc2ccc(Cl)cc2)CO1 (stereo unspecified) | 250 mg/kg
20 | CCOP(=S)(NC(C)CC)Oc1cc(C)ccc1[N+](=O)[O-] (stereo unspecified) | 630 mg/kg
21 | CCOC(=O)c1ccc(OC(=O)CCCCCNC(=N)N)cc1 | 6480 mg/kg
22 | COC(=S)SSC(=S)OC | 240 mg/kg
23 | NCCCNCCSP(=O)(O)O | 826 mg/kg
24 | C=CC(=O)N1CN(C(=O)C=C)CN(C(=O)C=C)C1 | 350 mg/kg
25 | CCC(C)(O)Cc1ccccc1 (stereo unspecified) | 4000 mg/kg
26 | CCCCN1CCCC1=Nc1ccc(Cl)c(Cl)c1 | 3050 mg/kg

Row | SMILES | LD50
27 | NS(=O)(=O)c1ccc(Cl)c(S(N)(=O)=O)c1 | 340 mg/kg
28 | BrC(Br)(Br)c1ccc2ccccc2n1 | 6770 mg/kg
29 | COP(=S)(OC)SC1OCCOC1SP(=S)(OC)OC (stereo unspecified) | 350 mg/kg
30 | CCNCC | 9900 mg/kg
31 | CNC(=O)Oc1cc([N+](C)(C)C)ccc1C | 2.5 mg/kg
32 | O=C(O)C=CC(=O)O | 8000 mg/kg and 3380 mg/kg
33 | CCCOC(=O)c1cc(O)c(O)c(O)c1 | 2100 mg/kg
34 | O=C(O)CNCP(=O)(O)O | 4870 mg/kg and 10500 mg/kg
35 | OC1(c2ccc(Cl)cc2)c2ccccc2C2=NCCN21 (stereo unspecified) | 36.3 mg/kg
36 | O=C(Nc1ccc(Nc2ccc(NC(=O)c3ccccc3)c3c2C(=O)c2ccccc2C3=O)c2c1C(=O)c1ccccc1C2=O)c1ccccc1 | 19300 mg/kg
37 | CNC(=O)Oc1ccc(O)c2ccccc12 | 1190 mg/kg
38 | O=C(O)c1ccc2c(c1)CCC(Cn1ccnc1)C2 (stereo unspecified) | 1990 mg/kg
39 | O=[N+]([O-])C(CO)(CO)CO | 1900 mg/kg
40 | O=C1OC(=O)c2ccc(Cl)c3cccc1c23 | 3460 mg/kg
41 | CCOc1ccc(C(=O)NCc2ccc(OCCNC)cc2)cc1OCC | 3000 mg/kg
42 | CN(CCO)c1ccccc1 | 2830 mg/kg
43 | CN(C)C#N | 146 mg/kg
44 | CNC(=O)Oc1ccc2c(c1)[C@]1(C)CCN(C)[C@@H]1N2C | 4.5 mg/kg
45 | CC(C(=O)O)c1ccc2c(c1)OCc1ccccc1C2=O (stereo unspecified) | 34 mg/kg
46 | Clc1cccc(Cl)c1N=C1NCCN1 | 126 mg/kg
47 | O=C(O)C1=CC(=CC=[N+]2C(C(=O)O)=Cc3cc(O)c(O)cc32)CC(C(=O)[O-])N1 (stereo unspecified) | 3140 mg/kg
48 | C1CCNC1 | 300 mg/kg
49 | O=C(NN=C1SCCS1)c1ccccc1 | 72.8 mg/kg
50 | O=C(O)c1cc2ccccc2c(Cc2c(O)c(C(=O)OCCOCCN3CCN(C(c4ccccc4)c4ccc(Cl)cc4)CC3)cc3ccccc23)c1O (stereo unspecified) | 1740 mg/kg
51 | COc1cccc([C@@]2(O)CCCC[C@H]2CN(C)C)c1 | 228 mg/kg
52 | CCCC(=O)OC(=O)CCC | 8790 mg/kg

Row | SMILES | LD50
53 | C=CCSP(=O)(NC(=O)CC)OC (stereo unspecified) | 125 mg/kg
54 | Nc1ccc([N+](=O)[O-])c(N)c1 | 4500 mg/kg
55 | CCOP(=S)(OCC)OCCS(=O)(=O)CC | 90 mg/kg
56 | CCOP(=O)(OCC)SC(P(=O)(OCC)OCC)(P(=O)(OCC)OCC)P(=O)(OCC)OCC | 28 mg/kg
57 | CC(CO)CCO (stereo unspecified) | 5460 mg/kg
58 | Nc1ccc(O)c2c1C(=O)c1c(N)c(Br)cc(O)c1C2=O | 12500 mg/kg
59 | CCC(C)OC(C[n+]1ccccc1)c1cccc(Cl)c1 (stereo unspecified) | 250 mg/kg
60 | c1ccc(Nc2cccc3ccccc23)cc1 | 1620 mg/kg
61 | CC(C)c1ccccc1N | 1180 mg/kg
62 | [O-][n+]1c2ccccc2nc2ccccc21 | 6600 mg/kg
63 | OCC(Br)CBr (stereo unspecified) | 681 mg/kg
64 | O=C(O)CN(CCOCCOCCN(CC(=O)O)CC(=O)O)CC(=O)O | 4000 mg/kg and 3590 mg/kg
65 | NC(=O)OC(CCl)Cc1ccccc1 (stereo unspecified) | 490 mg/kg
66 | C=CCCCCCCCCC(=O)O | 2500 mg/kg
67 | C=CC(CCCCC)OC(C)=O (stereo unspecified) | 850 mg/kg
68 | c1ccc2sc(SNC3CCCCC3)nc2c1 | 5300 mg/kg
69 | O=C(O)c1ccc([N+](=O)[O-])cc1 | 1960 mg/kg
70 | O=C(OCC(Cl)(Cl)Cl)c1ccco1 | 600 mg/kg
71 | C[C@H]1OC(O[C@H]2[C@@H](O)CC(O[C@H]3[C@@H](O)CC(O[C@H]4CC[C@@]5(C)[C@H](CC[C@@H]6[C@@H]5CC[C@]5(C)[C@@H](C7=CC(=O)OC7)[C@@H](OC=O)C[C@]65O)C4)O[C@@H]3C)O[C@@H]2C)C[C@H](O)[C@@H]1O (stereo partly specified) | 30 mg/kg
72 | CCCCCC1CNC(C(=O)NC(C(C)Cl)C2OC(SC)C(O)C(O)C2O)C1 (stereo unspecified) | 1100 mg/kg
73 | CC(C)(C(N)=O)c1ccccc1 | 1650 mg/kg
74 | N=C1C=C(Br)C(=O)c2c(N)cc(Br)c(O)c21 | 2400 mg/kg
75 | CCOC(=O)/C=C1/SC(N2CCCCC2)C(=O)N1C (stereo unspecified) | 10200 mg/kg
76 | N/C(=N\c1c([N+](=O)[O-])cnc2ccccc12)N1CCOCC1 | 4000 mg/kg
77 | CCCCCC=CCC1CC(=O)OC1=O (stereo unspecified) | 1100 mg/kg
78 | CN1CCC(=C2c3ccccc3C(O)c3ccccc32)CC1 (stereo unspecified) | 135 mg/kg

Row | SMILES | LD50
79 | Cc1nc(-c2cccnc2)sc1[N+](=O)[O-] | 815 mg/kg
80 | CCCSc1ccc2[nH]c(NC(=O)OC)nc2c1 | 2400 mg/kg
81 | ClC(Cl)(Cl)CC1CO1 (stereo unspecified) | 1500 mg/kg
82 | CC(C)=CC(=O)Nc1ccc(O)cc1 | 1950 mg/kg
83 | CCOP(=S)(OCC)SC(=CC(=O)OC)C(=O)OC | 80 mg/kg
84 | O=c1nn[nH]c2ccccc12 | 595 mg/kg
85 | COP(=O)(OC)OC(=C(Cl)Cl)c1ccc(Cl)cc1Cl | 109 mg/kg
86 | Cc1c[nH]c2ccccc12 | 3450 mg/kg
87 | OC(c1ccccc1)C1CCCCC1 (stereo unspecified) | 9300 mg/kg
88 | NC(=O)N1CCC(c2ccccc2)CC1 | 790 mg/kg
89 | CC(C)(C)[C@@H](O)/C(=C\c1ccc(Cl)cc1Cl)n1cncn1 | 474 mg/kg
90 | CCCCC(CC)COC(N)=O (stereo unspecified) | 3150 mg/kg
91 | C[n+]1ccc(-c2ccccc2)cc1 | 35 mg/kg
92 | NC(Cl)c1nc(Cl)c(Cl)c(Cl)c1Cl (stereo unspecified) | 1190 mg/kg
93 | CN(C)C(=S)SSC(=S)N(C)C | 560 mg/kg
94 | FC(F)OC(Cl)C(F)(F)F (stereo unspecified) | 4770 mg/kg
95 | Nc1ccc(-c2ccc(N)cc2)cc1 | 309 mg/kg
96 | CN1CC[C@]23c4c5ccc(O)c4O[C@H]2[C@H](N=[N+]=[N-])CC[C@H]3[C@H]1C5 | 62 mg/kg
97 | Cc1ccc(C(=O)c2ccc(CC(=O)NCCn3cnc4c3c(=O)n(C)c(=O)n4C)n2C)cc1 | 1200 mg/kg
98 | O=S1(=O)OCC2C(CO1)C1(Cl)C(Cl)=C(Cl)C2(Cl)C1(Cl)Cl (stereo unspecified) | 18 mg/kg
99 | Nc1ccc(-c2ccccc2N)cc1 | 311 mg/kg
100 | CCC1(C(C)CC(C)C)C(=O)NC(=O)NC1=O (stereo unspecified) | 75 mg/kg
101 | FC(Cl)(C(Cl)(Cl)Cl)C(Cl)(Cl)Cl | 500 mg/kg
102 | CC1=C(C)C(=O)C(C(CCCCCC(=O)O)c2ccccc2)=C(C)C1=O (racemic) | 3750 mg/kg
103 | CCCn1c(=O)[nH]c(=O)c2[nH]cnc21 | 481 mg/kg
104 | CCCCCCCCS(=O)CCCCl (stereo unspecified) | 5660 mg/kg

Row | SMILES | LD50
105 | Nc1c(S(=O)(=O)O)cc(Nc2ccc(S(=O)(=O)O)c(Nc3nc(Cl)nc(Cl)n3)c2)c2c1C(=O)c1ccccc1C2=O | 8980 mg/kg
106 | C=CC(Cl)=C(Cl)Cl | 680 mg/kg
107 | Cl[Si](Cl)(Cl)C1CC=CCC1 (stereo unspecified) | 2830 mg/kg
108 | C=COC(=O)CCC | 8530 mg/kg
109 | N#CC1CCCCC1 | 80 mg/kg
110 | CC(Cl)C(Cl)Cl (stereo unspecified) | 1230 mg/kg
111 | CS(=O)(=O)c1ccc(O)cc1 | 3160 mg/kg
112 | CC(N)=S | 301 mg/kg
113 | O=P1(NCCCl)OCCCN1CCCl (stereo unspecified) | 143 mg/kg
114 | C=C(CC(=O)c1ccc(-c2ccccc2Cl)cc1)C(=O)O | 2400 mg/kg
115 | CN(CO)C(=O)Oc1cccc2ccccc12 | 5360 mg/kg
116 | CCOP(=S)(OCC)SCn1nc(Br)ccc1=O | 30 mg/kg
117 | CN(C)CCN1C(=O)c2ccccc2N(C)c2ccccc21 | 220 mg/kg
118 | CC1CC2CN(C)CC(C2O)C1N1CCCC1 (stereo unspecified) | 500 mg/kg
119 | CCOC(=S)SSSSC(=S)OCC | 275 mg/kg
120 | CCCCCC(=O)c1ccc(N)cc1 | 216 mg/kg
121 | CCCCCC(C)=O | 1670 mg/kg
122 | O=C(O)c1cc(Cl)ccc1O | 250 mg/kg
123 | O=S(=O)(O)c1ccc2cc(Nc3cccc4c(O)c(S(=O)(=O)O)ccc34)ccc2c1O | 11000 mg/kg
124 | CCN(CC)CCCNc1c2ccccc2nc2cccc([N+](=O)[O-])c12 | 63.2 mg/kg
125 | O=NN(Cc1ccccc1)Cc1ccccc1 | 900 mg/kg
126 | CC1OCC2C(CO1)C1(Cl)C(Cl)=C(Cl)C2(Cl)C1(Cl)Cl (stereo unspecified) | 120 mg/kg
